Reference: patent US12459958B2, “Tricyclic compounds as HPK1 inhibitor and the use thereof” (BEIGENE, LTD., priority 2019, dated 2025)

Target: T1, HPK1 kinase (aa1-346, Life Technologies) (Homo sapiens, UniProt Q92918)
T1 construct: HPK1 kinase (aa1-346, Life Technologies); purchased Life Technologies
T1 sequence (Q92918 1-346): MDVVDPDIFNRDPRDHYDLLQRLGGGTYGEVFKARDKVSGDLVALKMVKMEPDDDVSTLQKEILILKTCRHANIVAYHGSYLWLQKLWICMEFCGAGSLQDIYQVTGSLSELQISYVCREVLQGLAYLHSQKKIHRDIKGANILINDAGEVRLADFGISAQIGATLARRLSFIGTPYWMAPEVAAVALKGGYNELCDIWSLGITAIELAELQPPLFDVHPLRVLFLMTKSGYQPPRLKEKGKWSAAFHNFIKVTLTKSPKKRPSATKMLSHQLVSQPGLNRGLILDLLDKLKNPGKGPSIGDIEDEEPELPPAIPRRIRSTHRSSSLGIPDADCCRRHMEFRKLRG
Test: HPK Kinase Activity Assay at 1 mM ATP (TR-FRET)
Assay type: biochemical
Conditions: HPK1 kinase 40 nM, 0.5 μM STK1 substrate, read-out: Enzymatic activity IC50
Experimental: HPK Kinase Activity Assay at 1 mM ATP
Compounds disclosed herein were tested for inhibition of HPK1 kinase (aa1-346, Life Technologies) activity in assays based on the time-resolved fluorescence-resonance energy transfer (TR-FRET) methodology. The assays were carried out in 384-well low volume black plates in a reaction mixture containing HPK1 kinase (40 nM), 1 mM ATP, 0.5 μM STK1 substrate and 0-10 μM compound in buffer containing 50 mM HEPES, 0.01% BSA, 0.1 mM Orthovanadate, 10 mM MgCl2, 1 mM DTT, pH=7.0, 0.005% Tween-20. The kinase was incubated with the compounds disclosed herein or DMSO for 60 minutes at room temperature and the reaction was initiated by the addition of ATP and STK1 substrate. After reaction at room temperature for 120 minutes, an equal volume of stop/detection solution was added according to the manufacture's instruction (CisBio). The stop/detection solution contained STK Antibody-Cryptate and XL665-conjugated streptavidin in Detection Buffer. The TR-FRET signals (ratio of fluorescence emission at 665 nm over emission at 620 nm with excitation at 337 nm wavelength) were recorded on a PHERAstar FS plate reader (BMG Labtech). Phosphorylation of STK1 substrate led to the binding of STK Antibody-Cryptate to the biotinylated STK1 substrate, which places fluorescent donor (Eu^3+ crypate) in close proximity to the accepter (Streptavidin-XL665), thus resulting in a high degree of fluorescence resonance energy transfer. The inhibition of HPK1 in presence of increasing concentrations of compounds was calculated based on the ratio of fluorescence at 665 nm to that at 620 nm. The IC50 for each compound was derived from fitting the data to the four-parameter logistic equation by Graphpad Prism software.

`Cc1cc(-c2cnc3[nH]cc(-c4ccc(C(=O)N(C)C)cc4)c3c2)cc2c1N1CCN(C)CC1CC2` (stereo not drawn) [Example 1, 4-(5-(3,10-dimethyl-2,3,4,4a,5,6-hexahydro-1H-pyrazino[1,2-a]quinolin-8-yl)-1H-pyrrolo[2,3-b]pyridin-3-yl)-N,N-dimethylbenzamide] gave an IC50 of 31 nM.
Molecule `Cc1cc(-c2cnc3[nH]cc(-c4ccc(C(=O)N(C)C[C@H](C)O)cc4)c3c2)cc2c1N1CCN(C)C[C@H]1CC2` [Example 2A, 4-(5-((R)-3,10-dimethyl-2,3,4,4a,5,6-hexahydro-1H-pyrazino[1,2-a]quinolin-8-yl)-1H-pyrrolo[2,3-b]pyridin-3-yl)-N—((S)-2-hydroxypropyl)-N-methylbenzamide] has an IC50 of 14 nM.
With `Cc1cc(-c2cnc3[nH]cc(-c4ccc(C(=O)N(C)C[C@H](C)O)cc4)c3c2)cc2c1N1CCN(C)C[C@@H]1CC2` [Example 2B, 4-(5-((S)-3,10-dimethyl-2,3,4,4a,5,6-hexahydro-1H-pyrazino[1,2-a]quinolin-8-yl)-1H-pyrrolo[2,3-b]pyridin-3-yl)-N—((S)-2-hydroxypropyl)-N-methylbenzamide] the IC50 was 19 nM.
`Cc1cc(-c2cnc3[nH]cc(-c4ccc(C(=O)N(C)C[C@@H](C)O)cc4)c3c2)cc2c1N1CCN(C)C[C@H]1CC2` [Example 3A, 4-(5-((R)-3,10-dimethyl-2,3,4,4a,5,6-hexahydro-1H-pyrazino[1,2-a]quinolin-8-yl)-1H-pyrrolo[2,3-b]pyridin-3-yl)-N—((R)-2-hydroxypropyl)-N-methylbenzamide] gave an IC50 of 21 nM.
`Cc1cc(-c2cnc3[nH]cc(-c4ccc(C(=O)N(C)C[C@@H](C)O)cc4)c3c2)cc2c1N1CCN(C)C[C@@H]1CC2` [Example 3B, 4-(5-((S)-3,10-dimethyl-2,3,4,4a,5,6-hexahydro-1H-pyrazino[1,2-a]quinolin-8-yl)-1H-pyrrolo[2,3-b]pyridin-3-yl)-N—((R)-2-hydroxypropyl)-N-methylbenzamide] was tested, and the IC50 was 18 nM.
`Cc1cc(-c2cnc3[nH]cc(-c4ccc(C(=O)N(C)C[C@@H]5CCOC5)cc4)c3c2)cc2c1N1CCN(C)C[C@H]1CC2` [Example 4A, 4-(5-((R)-3,10-dimethyl-2,3,4,4a,5,6-hexahydro-1H-pyrazino[1,2-a]quinolin-8-yl)-1H-pyrrolo[2,3-b]pyridin-3-yl)-N-methyl-N—(((S)-tetrahydrofuran-3-yl)methyl)benzamide] gave an IC50 of 14 nM.
`Cc1cc(-c2cnc3[nH]cc(-c4ccc(C(=O)N(C)C[C@@H]5CCOC5)cc4)c3c2)cc2c1N1CCN(C)C[C@@H]1CC2` [Example 4B, 4-(5-((S)-3,10-dimethyl-2,3,4,4a,5,6-hexahydro-1H-pyrazino[1,2-a]quinolin-8-yl)-1H-pyrrolo[2,3-b]pyridin-3-yl)-N-methyl-N—(((S)-tetrahydrofuran-3-yl)methyl)benzamide] gave an IC50 of 15 nM.
`Cc1cc(-c2cnc3[nH]cc(-c4ccc(C(=O)N(C)C[C@H]5CCOC5)cc4)c3c2)cc2c1N1CCN(C)C[C@H]1CC2` [Example 5A, 4-(5-((R)-3,10-dimethyl-2,3,4,4a,5,6-hexahydro-1H-pyrazino[1,2-a]quinolin-8-yl)-1H-pyrrolo[2,3-b]pyridin-3-yl)-N-methyl-N—(((R)-tetrahydrofuran-3-yl)methyl)benzamide] was tested, and the IC50 was 32 nM.
`Cc1cc(-c2cnc3[nH]cc(-c4ccc(C(=O)N(C)C[C@H]5CCOC5)cc4)c3c2)cc2c1N1CCN(C)C[C@@H]1CC2` [Example 5B, 4-(5-((S)-3,10-dimethyl-2,3,4,4a,5,6-hexahydro-1H-pyrazino[1,2-a]quinolin-8-yl)-1H-pyrrolo[2,3-b]pyridin-3-yl)-N-methyl-N—(((R)-tetrahydrofuran-3-yl)methyl)benzamide] gave an IC50 of 27 nM.
`Cc1cc(-c2c[nH]c3ncc(-c4cc(C)c5c(c4)CC[C@@H]4CN(C)CCN54)nc23)ccc1C(=O)N(C)C` [Example 6A, (R)-4-(2-(3,10-dimethyl-2,3,4,4a,5,6-hexahydro-1H-pyrazino[1,2-a]quinolin-8-yl)-5H-pyrrolo[2,3-b]pyrazin-7-yl)-N,N,2-trimethylbenzamide] gave an IC50 of 36 nM.
`Cc1cc(-c2c[nH]c3ncc(-c4cc(C)c5c(c4)CC[C@H]4CN(C)CCN54)nc23)ccc1C(=O)N(C)C` [Example 6B, (S)-4-(2-(3,10-dimethyl-2,3,4,4a,5,6-hexahydro-1H-pyrazino[1,2-a]quinolin-8-yl)-5H-pyrrolo[2,3-b]pyrazin-7-yl)-N,N,2-trimethylbenzamide] gave an IC50 of 47 nM.
`Cc1cc(-c2cnc3[nH]cc(-c4ccc(C(=O)N(C)C)cc4)c3n2)cc2c1N1CCN(C)C[C@H]1CC2` [Example 7A, (R)-4-(2-(3,10-dimethyl-2,3,4,4a,5,6-hexahydro-1H-pyrazino[1,2-a]quinolin-8-yl)-5H-pyrrolo[2,3-b]pyrazin-7-yl)-N,N-dimethylbenzamide] was tested, and the IC50 was 23 nM.
For `Cc1cc(-c2cnc3[nH]cc(-c4ccc(C(=O)N(C)C)cc4)c3n2)cc2c1N1CCN(C)C[C@@H]1CC2` [Example 7B, (S)-4-(2-(3,10-dimethyl-2,3,4,4a,5,6-hexahydro-1H-pyrazino[1,2-a]quinolin-8-yl)-5H-pyrrolo[2,3-b]pyrazin-7-yl)-N,N-dimethylbenzamide], the IC50 was 22 nM.
`Cc1cc(-c2c[nH]c3ncc(-c4cc(C)c5c(c4)CC[C@@H]4CN(C)CCN54)nc23)ccc1C(=O)N1CC2(COC2)C1` [Example 8A, (R)-(4-(2-(3,10-dimethyl-2,3,4,4a,5,6-hexahydro-1H-pyrazino[1,2-a]quinolin-8-yl)-5H-pyrrolo[2,3-b]pyrazin-7-yl)-2-methylphenyl)(2-oxa-6-azaspiro[3.3]heptan-6-yl)methanone] gave an IC50 of 58 nM.
With `Cc1cc(-c2c[nH]c3ncc(-c4cc(C)c5c(c4)CC[C@H]4CN(C)CCN54)nc23)ccc1C(=O)N1CC2(COC2)C1` [Example 8B, (S)-(4-(2-(3,10-dimethyl-2,3,4,4a,5,6-hexahydro-1H-pyrazino[1,2-a]quinolin-8-yl)-5H-pyrrolo[2,3-b]pyrazin-7-yl)-2-methylphenyl)(2-oxa-6-azaspiro[3.3]heptan-6-yl)methanone] the IC50 was 61 nM.
In the case of `Cc1cc(-c2cnc3[nH]cc(-c4ccc(C(=O)N5CC6(COC6)C5)cc4)c3n2)cc2c1N1CCN(C)C[C@H]1CC2` [Example 9A, (R)-(4-(2-(3,10-dimethyl-2,3,4,4a,5,6-hexahydro-1H-pyrazino[1,2-a]quinolin-8-yl)-5H-pyrrolo[2,3-b]pyrazin-7-yl)phenyl)(2-oxa-6-azaspiro[3.3]heptan-6-yl)methanone], the IC50 is reported as 17 nM.
With `Cc1cc(-c2cnc3[nH]cc(-c4ccc(C(=O)N5CC6(COC6)C5)cc4)c3n2)cc2c1N1CCN(C)C[C@@H]1CC2` [Example 9B, (S)-(4-(2-(3,10-dimethyl-2,3,4,4a,5,6-hexahydro-1H-pyrazino[1,2-a]quinolin-8-yl)-5H-pyrrolo[2,3-b]pyrazin-7-yl)phenyl)(2-oxa-6-azaspiro[3.3]heptan-6-yl)methanone] the IC50 was 21 nM.
For `Cc1cc(-c2cnc3[nH]cc(-c4ccc(C(=O)N(C)C[C@@H]5CCOC5)cc4)c3n2)cc2c1N1CCN(C)C[C@H]1CC2` [Example 10A, 4-(2-((R)-3,10-dimethyl-2,3,4,4a,5,6-hexahydro-1H-pyrazino[1,2-a]quinolin-8-yl)-5H-pyrrolo[2,3-b]pyrazin-7-yl)-N-methyl-N—(((S)-tetrahydrofuran-3-yl)methyl)benzamide], the IC50 was 17 nM.
For `Cc1cc(-c2cnc3[nH]cc(-c4ccc(C(=O)N(C)C[C@@H]5CCOC5)cc4)c3n2)cc2c1N1CCN(C)C[C@@H]1CC2` [Example 10B, 4-(2-((S)-3,10-dimethyl-2,3,4,4a,5,6-hexahydro-1H-pyrazino[1,2-a]quinolin-8-yl)-5H-pyrrolo[2,3-b]pyrazin-7-yl)-N-methvl-N—(((S)-tetrahydrofuran-3-yl)methyl)benzamide], the IC50 was 17 nM.
`Cc1cc(-c2c[nH]c3ncc(-c4cc(C)c5c(c4)CC[C@@H]4CN(C)CCN54)nc23)ccc1C(=O)N(C)C[C@@H]1CCOC1` [Example 11A, 4-(2-((R)-3,10-dimethyl-2,3,4,4a,5,6-hexahydro-1H-pyrazino[1,2-a]quinolin-8-yl)-5H-pyrrolo[2,3-b]pyrazin-7-yl)-N,2-dimethyl-N—(((S)-tetrahydrofuran-3-yl)methyl)benzamide] gave an IC50 of 52 nM.
Work on `Cc1cc(-c2c[nH]c3ncc(-c4cc(C)c5c(c4)CC[C@H]4CN(C)CCN54)nc23)ccc1C(=O)N(C)C[C@@H]1CCOC1` [Example 11B, 4-(2-((S)-3,10-dimethyl-2,3,4,4a,5,6-hexahydro-1H-pyrazino[1,2-a]quinolin-8-yl)-5H-pyrrolo[2,3-b]pyrazin-7-yl)-N,2-dimethyl-N—(((S)-tetrahydrofuran-3-yl)methyl)benzamide] yielded an IC50 of 53 nM.
